Test results published in US20250066413A1, “COMPOSITIONS FOR TREATMENT OF INFLAMMATION” (Metro International Biotech, LLC, priority 2022, published 2025).

What was measured:
Type in all cases: cell-based
NDF Cells = experiment: NAD Elevation Assay (NAD Cellular Assay), NDF cells; conditions: 0.25 mM compound
Method: (§1) Compounds were tested in an NAD Cellular Assay according to the following protocol. Jurkat cells (50,000 per in 100 microliters of RPMI media) were added to wells of a 96 well, conical bottomed plate. The cells were allowed to recover for 3 h in culture. A 16 microliter aliquot of a 100 mM compound stock solution was diluted with 784 microliters of medium and 10% FBS to give 800 microliters of a 2 mM compound treatment solution. The compound treatment solution was added to the cells for a final concentration of 1 mM compound (n=6 wells for each compound.) As a parallel control, nicotinamide mononucleotide (NMN) was added to cells at a final concentration of 2 mM (n=6). The plates were incubated for 24 hours, then spun at 1000 rpm for 10 min. The medium was removed, then the cells were washed with fresh PBS and spun again. The PBS medium was removed, then the cells were washed one more time with PBS and spun. The liquid was removed from each well via pipette, avoiding touching the cell pellet. The cells were lysed with 75 microliters of 0.5% DTAB. 25 microliters of the lysate was added to each of two flat bottomed plates. One plate was used for a BCA protein assay (clear), and the other plate was used for the NAD assay (clear bottom, white walled). The NAD concentration in each well was determined using a commercially available assay according to the kit instructions (e.g. Promega NAD/NADH-Glo™ Assay.) The Pierce BCA protein assay was run according to the kit instructions (e.g. ThermoScientific Catalog number 23225). NAD levels were normalized to total protein and reported as a multiple of the NAD level in untreated cells.
(§2) Assays with other cell types were run similarly, using the appropriate compound and NMN dilutions. Cell counts were adjusted as necessary to provide a signal within the reading range of the protein and NAD assay kits.

HEPG2 Cells = experiment: NAD Elevation Assay (NAD Cellular Assay), HEPG2 cells
Method: as §1, §2

AML12 Cells = experiment: NAD Elevation Assay (NAD Cellular Assay), AML12 cells; conditions: at 0.4-2 mM compound
Method: as §1, with “The PBS medium was removed, then the cells were washed one more time with PBS and spun. The liquid was removed from each well via pipette, avoiding touching the cell pellet. The cells were lysed with 75 microliters of 0.5% DTAB. 25 microliters of the lysate was added to each of two flat bottomed plates. One plate was used for a BCA protein assay (clear), and the other plate was used for the NAD assay (clear bottom, white walled).” left out, “NAD levels were normalized to total protein and reported as a multiple of the NAD level in untreated cells.” left out
as §2

Jurkat cells = experiment: NAD Elevation Assay (NAD Cellular Assay), Jurkat cells; conditions: 1 mM compound, 24 hours
Method: as §1, with “25 microliters of the lysate was added to each of two flat bottomed plates. One plate was used for a BCA protein assay (clear), and the other plate was used for the NAD assay (clear bottom, white walled).” left out, “NAD levels were normalized to total protein and reported as a multiple of the NAD level in untreated cells.” left out

Cn1c(=O)c2c(ncn2CC(=O)OCCCOC(=O)c2ccc[n+]([C@@H]3O[C@H](COP(=O)([O-])O)[C@@H](O)[C@H]3O)c2)n(C)c1=O [Compound 6P, ((2R,3S,4R,5R)-5-(3-((3-(2-(1,3-dimethyl-2,6-dioxo-1,2,3,6-tetrahydro-7H-purin-7-yl)acetoxy)propoxy)carbonyl)pyridin-1-ium-1-yl)-3,4-dihydroxytetrahydrofuran-2-yl)methyl hydrogen phosphate]
NAD Elevation Assay (NAD level normalized to total protein, multiple of the NAD level in untreated cells) (NDF Cells): 2.0x @0.25

Cn1cnc2c1c(=O)n(CCCOC(=O)c1ccc[n+]([C@@H]3O[C@H](COP(=O)([O-])O)[C@@H](O)[C@H]3O)c1)c(=O)n2C [Compound 5P, ((2R,3S,4R,5R)-5-(3-((3-(3,7-dimethyl-2,6-dioxo-2,3,6,7-tetrahydro-1H-purin-1-yl)propoxy)carbonyl)pyridin-1-ium-1-yl)-3,4-dihydroxytetrahydrofuran-2-yl)methyl hydrogen phosphate]
NAD Elevation Assay (NAD level normalized to total protein, multiple of the NAD level in untreated cells) (NDF Cells): 2.2x @0.25

Cn1cnc2c1c(=O)n(CCNC(=O)c1ccc[n+]([C@@H]3O[C@H](COP(=O)([O-])O)[C@@H](O)[C@H]3O)c1)c(=O)n2C [Compound 9P, ((2R,3S,4R,5R)-5-(3-((2-(3,7-dimethyl-2,6-dioxo-2,3,6,7-tetrahydro-1H-purin-1-yl)ethyl)carbamoyl)pyridin-1-ium-1-yl)-3,4-dihydroxytetrahydrofuran-2-yl)methyl hydrogen phosphate]
NAD Elevation Assay (NAD level normalized to total protein, multiple of the NAD level in untreated cells) (HEPG2 Cells; 0.25 mM compound): 1.9x @0.25

Cn1cnc2c1c(=O)n(CC(=O)OCCCOC(=O)c1ccc[n+]([C@@H]3O[C@H](CO)[C@@H](O)[C@H]3O)c1)c(=O)n2C.O=S(=O)([O-])C(F)(F)F [Compound 1, 1-((2R,3R,4S,5R)-3,4-dihydroxy-5-(hydroxymethyl)tetrahydrofuran-2-yl)-3-((3-(2-(3,7-dimethyl-2,6-dioxo-2,3,6,7-tetrahydro-1H-purin-1-yl)acetoxy)propoxy)carbonyl)pyridin-1-ium trifluoromethanesulfonate]
NAD Elevation Assay (AML12 Cells): Active at 0.4-2

Cn1c(=O)c2c(ncn2CCOC(=O)c2ccc[n+]([C@@H]3O[C@H](COP(=O)([O-])O)[C@@H](O)[C@H]3O)c2)n(C)c1=O [Compound 2P, ((2R,3S,4R,5R)-5-(3-((2-(1,3-dimethyl-2,6-dioxo-1,2,3,6-tetrahydro-7H-purin-7-yl)ethoxy)carbonyl)pyridin-1-ium-1-yl)-3,4-dihydroxytetrahydrofuran-2-yl)methyl hydrogen phosphate]
NAD Elevation Assay (NAD level normalized to total protein, multiple of the NAD level in untreated cells) (HEPG2 Cells; 2 mM compound): 1.6x @2

Cn1cnc2c1c(=O)n(CCOC(=O)c1ccc[n+]([C@@H]3O[C@H](COP(=O)([O-])O)[C@@H](O)[C@H]3O)c1)c(=O)n2C [Compound 4, ((2R,3S,4R,5R)-5-(3-((2-(3,7-dimethyl-2,6-dioxo-2,3,6,7-tetrahydro-1H-purin-1-yl)ethoxy)carbonyl)pyridin-1-ium-1-yl)-3,4-dihydroxytetrahydrofuran-2-yl)methyl hydrogen phosphate]
NAD Elevation Assay (NAD level normalized to total protein, multiple of the NAD level in untreated cells) (HEPG2 Cells; 0.1 mM compound): 2.1x @0.1

CCCn1cnc2c1c(=O)n(CCOC(=O)c1ccc[n+]([C@@H]3O[C@H](COP(=O)([O-])O)[C@@H](O)[C@H]3O)c1)c(=O)n2C [Compound 7P, ((2R,3S,4R,5R)-3,4-dihydroxy-5-(3-((2-(3-methyl-2,6-dioxo-7-propyl-2,3,6,7-tetrahydro-1H-purin-1-yl)ethoxy)carbonyl)pyridin-1-ium-1-yl)tetrahydrofuran-2-yl)methyl hydrogen phosphate]
NAD Elevation Assay (NAD level normalized to total protein, multiple of the NAD level in untreated cells) (NDF Cells): 1.9x @0.25

Cn1c(=O)c2c(ncn2CCOC(=O)c2ccc[n+]([C@@H]3O[C@H](CO)[C@@H](O)[C@H]3O)c2)n(C)c1=O.O=S(=O)([O-])C(F)(F)F [Compound 2, 1-((2R,3R,4S,5R)-3,4-dihydroxy-5-(hydroxymethyl)tetrahydrofuran-2-yl)-3-((2-(1,3-dimethyl-2,6-dioxo-1,2,3,6-tetrahydro-7H-purin-7-yl)ethoxy)carbonyl)pyridin-1-ium trifluoromethanesulfonate]
NAD Elevation Assay (NAD level normalized to total protein, multiple of the NAD level in untreated cells) (Jurkat cells): 2.9x @1

CCn1c(=O)c2c(ncn2CCOC(=O)c2ccc[n+]([C@@H]3O[C@H](COP(=O)([O-])O)[C@@H](O)[C@H]3O)c2)n(CC)c1=O [Compound 11P, ((2R,3S,4R,5R)-5-(3-((2-(1,3-diethyl-2,6-dioxo-1,2,3,6-tetrahydro-7H-purin-7-yl)ethoxy)carbonyl)pyridin-1-ium-1-yl)-3,4-dihydroxytetrahydrofuran-2-yl)methyl hydrogen phosphate]
NAD Elevation Assay (NAD level normalized to total protein, multiple of the NAD level in untreated cells) (HEPG2 Cells; 2 mM compound): 1.3x @2

Cn1cnc2c1c(=O)n(CCOC(=O)c1ccc[n+]([C@@H]3O[C@H](CO)[C@@H](O)[C@H]3O)c1)c(=O)n2C.O=S(=O)([O-])C(F)(F)F [Compound 3, 1-((2R,3R,4S,5R)-3,4-dihydroxy-5-(hydroxymethyl)tetrahydrofuran-2-yl)-3-((2-(3,7-dimethyl-2,6-dioxo-2,3,6,7-tetrahydro-1H-purin-1-yl)ethoxy)carbonyl)pyridin-1-ium trifluoromethanesulfonate]
NAD Elevation Assay (AML12 Cells): Active at 0.4-2
